The source of these data is patent publication US11156623B2, “Methods of monitoring safety of quercetin compositions” (PUBLIC JOINT STOCK COMPANY “SCIENTIFIC INDUSTRIAL CENTRE …, priority 2018, dated 2021).

The term EC50 denotes the concentration needed to bring the measured effect to its halfway point. Broadly, the IC50 is the point on the concentration scale where inhibition reaches its midpoint.

SMILES strings stand for the structures. In brackets after ≈: the same amount, converted by molar mass. Read-outs that look alike come from different tables or passages of the source.

The subject of data set [1] is Pseudokirchneriella subcapitata. The following applies: cited from earlier work.
For the next data set, the system named is HCT-116 human cells. The following applies: cited from earlier work.
For data set [2] the following is noted: human.
Procedure: Potential human toxicity of 2,4,6-THBA can be related to its toxicity based on studies with Daphnia. Toxicity of various compounds in Daphnia (48 h immobilization test) correlated to toxicity in humans (determined as reference dose for human oral exposure, RfD) (Martins et al., 2007).
The test system of data set [3] is Pseudokirchneriella subcapitata.
Data set [4] relates to Daphnia magna. The following applies: cited from earlier work; for EC50 at 48 h: Daphnia magna mobility.
Data set [5] deals with Daphnia magna. Description: Daphnia magna mobility assay. The following applies: 48 h.
Procedure: Toxicity is determined using a Daphnia magna mobility assay as described (Kamaya et al., 2005). Neonates (<24 h old) from 2-3-week-old mothers are placed in a 50 ml glass beaker containing 40 ml of a test solution. A sample of solid form quercetin (10%)/PVP (90%) composition containing 2,4,6-trihydroxybenzoic acid is resuspended and introduced at increasing dilutions. All experiments for exposure and controls without chemicals are made in four replicates and performed at 21±0.3° C. under 16 h light:8 h dark photoperiod. Immobility is used as the endpoint for determining acute toxicity; the daphnids showing no movement within 15 s after gentle stirring are defined to be immobile. After 24 and 48 h, the number of immobile daphnids is recorded to determine the concentration able to achieve 50% immobilization and it is indicated as EC50.
In data set [6] the test system is cyclin-dependent kinases CDK1, 2, 4, 6. The following applies: purified CDKs in vitro; cited from earlier work.
The subject of data set [7] is MDA-MB231 human breast cancer cells. In words: Cell viability assay (CellTiter 96 AQueous One) in MDA-MB231. The following applies: MDA-MB-231, MDA-MB231, 72 h. Type of data set: cell-based. The method, then: Toxicity of DB-DBA (2-(3,4-dihydroxybenzoyloxy)-4,6-dihydroxybenzoic acid) was assessed in 96-well plate (Thermo Fisher, Walthman, Mass.) on 1×10^3 MDA-MB231 human breast cancer cells/well. DB-DBA was diluted in to concentrations from 500 to 0 ug/ml. The plate was incubated at 37° C. for 72 h. Cell viability was measured in a CellTiter 96® AQueous One Solution Cell Proliferation Assay (Promega, Madison, Wis.), according to the manufacturer's protocol. The absorbance at 490 nm is determined spectrophotometrically and IC50 was calculated to be 75 microgram/ml.

Data set [8] concerns retinal pigmented epithelial cells (ARPE-19). The following applies: ARPE-19 normal cell line; cited from earlier work.
For data set [9], the system named is human lymphoblastoid cell line K562. The following applies: cited from earlier work.
Data set [10] has as its system human lymphoblastoid TK6 cells. The following applies: cited from earlier work.
Data set [11] relates to HeLa, MCF7, HepG2, A549, LNCaP human cell lines. The following applies: cited from earlier work.
A further data set has as its system OVCAR3 human cell line. The following applies: OVCAR3, 48 h; read-out: EC50, loss of viability; cited from earlier work.
Another data set has as its system LNCaP human cell line. The following applies: 48 h, read-out: EC50, loss of viability; cited from earlier work.
The test system of a further data set is mice. The following applies: cited from earlier work.
For data set [12] the following is noted: cited from earlier work.
A short description of data set [13]: Storage stability: degradation products by liquid chromatography with UV detection. Format: physicochemical. As for the experimental part:
(§1) Methods to detect PCA are known in the art, such as by liquid chromatography with UV detection. For example, a solution containing PCA is subjected to liquid chromatography using gradient elution with the following conditions: stainless steel column with stationary phase end-capped octadecylsilyl silica for chromatography R; size (150×3.9) mm, particle size 5 micron. Mobile phase A: 0.1% phosphoric acid v/v; mobile phase B—methanol; column temperature: 25° C.; flow rate: 1 mL/min.; UV detection at 254 nm. Relative retention time is 1.00 for quercetin, and 0.34 for PCA (FIG. 2). Content of PCA relative to quercetin can be calculated by formula (in percentage): […]
as §1, with “detect 2,4,6-THBA” for “detect PCA”, “containing 2,4,6-THBR” for “containing PCA”, “for 2,4,6-trihydroxybenzoic acid” for “for PCA”, “of 2,4,6-trihydroxybenzoic acid” for “of PCA”
Methods to detect DB-DBA are known in the art, such as by liquid chromatography with UV detection. For example, a solution containing DB-DBA is subjected to liquid chromatography using gradient elution with the following conditions: stainless steel column with stationary phase end-capped octadecylsilyl silica for chromatography R; size (150×3.9) mm, particle size 5 microns. Mobile phase A: 0.1% phosphoric acid v/v; mobile phase B—methanol; column temperature: 25° C.; flow rate: 1 mL/min.; UV detection at 254 nm. Relative retention time is 1.00 for quercetin, and 0.77 for DB-DBA (FIG. 15). Content of DB-DBA relative to quercetin can be calculated by formula (in percentage):
For test solution content of one vial with 70 ml of 96% ethanol was transferred to a 100 ml volumetric flask, diluted to 100 ml with the same solvent and mixed. For reference solution a, 1.0 ml of test solution was placed in a 100 ml volumetric flask, diluted to 100 ml with 96% ethanol and mixed. For reference solution b, 10.0 mg working standard of quercetin for system suitability (containing isorhamnetin and kaempferol, PJSC SIC “Borshchahivskiy CPP”, Kiev, Ukraine) was dissolved in 30 ml of 96% ethanol, diluted to 50 ml with the same solvent and mixed. Chromatography was performed on a using a Dionex UltiMate 3000 HPLC system (Thermo Fisher Scientific, Inc., Waltham, Mass.) with DAD and MS detectors (3200 QTRAP System (AB Sciex LLC, Framingham, Mass.)) connected consecutively using gradient elution with the following conditions: • stainless steel column with stationary phase end-capped octadecylsilyl silica for chromatography; size (150×3.9) mm, particle size 5 microns • Mobile phase A: 1.0 mL of phosphoric acid diluted to 1000 mL with water for chromatography, mixed and degassed; • Mobile phase B: methanol gradient grade; • Column temperature: 25° C. • Flow rate: 1 mL/min.; • Detection at 254 nm; • injection volume: 10 microL.
Inject test solution and reference solution (a). Peaks of quercetin and kaempferol as references were determined by relative retention times of 1.00 and 1.11
Vials containing (group 1) a lyophilized quercetin (10%)/PVP (90%) composition in an air atmosphere and (group 2) vials containing a lyophilized quercetin (10%)/PVP (90%) composition in a nitrogen gas atmosphere were stored at room temperature. Samples were obtained for each group at the indicated time points (0, 3, 6, 9, 12, 18, 24, and 36 months) and assayed for content of protocatechuic acid by chromatography as described above. Data from 3 independent experiments are shown. […]

The conditions of data set [14]: humans, cited from earlier work.
[15] abbreviates: 36 months storage at 20-25° C., air.

With `O=C(O)c1c(O)cc(O)cc1O` [2,4,6-THBA, 2,4,6-trihydroxybenzoic acid], in [1], the “EC50, suppression of growth” value is 0.546 µg/mL. Besides, in the data set on HCT-116 human cells, the “cytotoxicity compared to other salicylic acid metabolites” value is “more cytotoxic”. Further, in [2], the “RfD of 2,4,6-THBA relative to benzoic acid” value is on record as “more than 50 times”; the “RfD, estimated from Daphnia EC50” value is listed as 0.02 mg/kg/day; the “toxicity of 2,4,6-THBA relative to quercetin” value worked out at 700 times. Besides, the “toxicity relative to benzoic acid and its other derivatives” value in [3] came to 70 times. Also, the “LC50 in 48 h” value in the data set with Daphnia magna [4] (Daphna magna immobilization test) is 1.7 µg/mL (≈ 9.99 µM). The “EC50 at 48 h” value in the data set on Daphnia magna [4] is 1.7 µg/mL (≈ 9.99 µM). Also, the “toxicity relative to benzoic acid” value in the data set on Daphnia magna [5] is “about 500 times”. Further, the “inhibitory effect on cyclin-dependent kinases CDK1, 2, 4, 6” value in data set [6] is on record as “strong inhibitory effect”.

For the molecule `O=C(Oc1cc(O)cc(O)c1C(=O)O)c1ccc(O)c(O)c1` [DB-DBA, 2-(3,4-dihydroxybenzoyloxy)-4,6-dihydroxybenzoic acid], half-maximal inhibition in data set [7] (IC50) required 75 µg/mL (≈ 245 µM).

As for `O=C(O)c1cc(O)c(O)c(OC(=O)c2cc(O)c(O)c(O)c2)c1` [DGA, digallic acid], the “IC50, cytotoxicity” value in [8] is given as 47 microgram/mil. For the same molecule, the “concentrations causing DNA fragmentation” value in [9] is listed as 200-800 microgram/ml. For the same molecule, in data set [10] (Bhouri et al., 2012a), the “IC50 by MTT assay” value is listed as 8.5 microgram/ml. The “concentrations causing DNA fragmentation, caspase-3/8 activation and PARP cleavage” value in data set [10] (TK6) was 2.5-10 microgram/ml.

For the molecule `O=C(O)c1ccc(O)c(O)c1` [PCA, 3,4-dihydroxybenzoic acid], the “concentration causing apoptosis (DNA fragmentation, caspase 3 activation)” value in [11] was 5 to 8 µM. In addition, the concentration giving a half-maximal response (EC50) in the data set on OVCAR3 human cell line and in the data set with LNCaP human cell line was 5 µM each time. For the same molecule, the “hepatotoxicity (increase in ALT)” value in the data set with mice (acute, 50 mg/kg intraperitoneally) is on record as “the same effect”; in the data set on mice (subchronic, 0.1% in drinking water for 60 days) it was “causes hepatotoxicity”.

With `O=C(O)c1ccccc1` [benzoic acid], the “EC50, suppression of growth” value in [1] was 36 µg/mL. In addition, in the data set on Daphnia magna [4], the 50% effective concentration (EC50) at 48 h is 860 µg/mL (≈ 7040 µM). Moreover, in data set [12], the “RfD / toxicity in humans” value was 1 mg/kg/day.

As to `O=c1c(O)c(-c2ccc(O)c(O)c2)oc2cc(O)cc(O)c12` [quercetin, 2-(3,4-dihydroxyphenyl)-3,5,7-trihydroxy-4H-chromen-4-one], in data set [13], the “decrease of 2,4,6-THBA concentration by air substitution with nitrogen gas” value was 7 fold. Further, the protocatechuic acid accumulation result in data set [13] (3 months storage at 20-25° C., air) is “about 0.1 % (w/w) protocatechuic acid/quercetin”; in data set [13] (setting [15]), “about 0.9 % protocatechuic acid/quercetin”. Further, the “2,4,6-THBA accumulation” value in data set [13] (6 months storage at 20-25° C., air) is “about 0.1 % (w/w) 2,4,6-trihydroxybenzoic acid/quercetin”; in data set [13] (setting [15]), “about 0.5 % 2,4,6-trihydroxybenzoic acid/quercetin”. Besides, the protocatechuic acid formation entry in data set [13] (12 months storage, ambient conditions) is listed as “above 0.4 % of quercetin content”. Moreover, the “2,4,6-THBA formation” value in [13] (24 months storage, ambient conditions, air) is 0.33 % of quercetin content; in data set [13] (air substituted with nitrogen gas (FIG. 19)) it was 0.05%. Further, in data set [13] (Daphnia), the “2,4,6-THBA concentration relative to LC50 in 48 h Daphnia immobilization test (lower)” value is on record as “more than 3 times”. In [13] (Daphnia, 24 months), the “2,4,6-THBA concentration relative to LC50 in 48 h Daphnia immobilization test (higher)” value is “about 2 times”. For the same molecule, in data set [13] (air substituted with nitrogen gas), the “2,4,6-THBA concentration” value worked out at 0.5 mg/L. For the same molecule, the “rate of 2,4,6-THBA accumulation” value in data set [13] (room temperature, air) is given as ~0.15 % of quercetin (w/w) per 12 months. In addition, the “rate of DB-DBA accumulation” value in [13] (room temperature, air) was ~1.25 % of quercetin (w/w) per 12 months. The “RfD / toxicity in humans” value in [12] is “more than 15 mg/kg/day”. Further, the elimination half-life in data set [14] (after ingestion in foods or supplements) is 1 to 2 h. For the same molecule, in data set [14], the bioavailability of quercetin was 0-50%.
